Active and inactive are the calls of the source. No cut-off for these calls is given here.
Columns and labels:
[1] = system: 2B4; test: Induction of NFAT-GFP signal in mouse 2B4 reporter cells expressing mMincle + FcRgamma at 0.1 to 1 nmol incubated for 18 hrs by flow cytometry analysis; assay type: functional, cell-based; details: dose 0.1-1 nmol
[2] = system: HEK293; test: Induction of IL-8 production in HEK293 cells expressing mouse NOD2 at 5 to 50 uM incubated for 20 hrs by ELISA; assay type: functional, cell-based; details: Homo sapiens, dose 5-50 µM
[3] = Drug hydrolysis in water at pH 7 assessed as half life by HPLC-UV analysis; assay type: physicochemical; details: buffer
[4] = Drug hydrolysis in water at pH 4.4 assessed as half life by HPLC-UV analysis; assay type: physicochemical
[5] = Drug hydrolysis in water at pH 1 assessed as half life by HPLC-UV analysis; assay type: physicochemical
[6] = system: BMDM; test: Induction of IL-1beta production in C57BL/6 mouse BMDM at 1 nmol incubated for 48 hrs by ELISA; assay type: functional, cell-based
[7] = system: BMDM; test: Induction of IL-6 production in C57BL/6 mouse BMDM at 1 nmol incubated for 48 hrs by ELISA; assay type: functional, cell-based
[8] = system: BMDM; test: Induction of IL-23 production in C57BL/6 mouse BMDM at 1 nmol incubated for 48 hrs by ELISA; assay type: functional, cell-based
[9] = system: Splenocyte; test: Improvement in memory response in ovalbumin immunized C57BL/6 mouse splenocytes assessed as increase in IFNgamma level incubated for 72 hrs by ELISA; assay type: functional, cell-based
[10] = species on record: Mus musculus; test: Adjuvanticity in ovalbumin immunized C57BL/6 mouse assessed as increase in anti-OVA IgG titers at 40 nmol boosted with OVA at 1 week and measured after week 4, 5, 6 by ELISA; assay type: functional, organism-based; details: time 6.0 weeks
[11] = Toxicity in ovalbumin immunized C57BL/6 mouse assessed as body weight loss at 40 nmol boosted with OVA at 1 week and measured after week 3, 4, 5 and 6; details: in vivo, 1008 h, time 6 weeks
[12] = system: BMDM; test: Induction of IL-1beta production in C57BL/6 mouse BMDM cells at 2 ug/ml incubated for 48 hrs in presence of 1 nmol [(2R,3S,4S,5R,6R)-3,4,5-trihydroxy-6-[(3R,4S,5S,6R)-3,4,5-trihydroxy-6-[(4-octadecoxybenzoyl)oxymethyl]tetrahydropyran-2-yl]oxy-tetrahydropyran-2-yl]methyl 4-octadecoxybenzoate by ELISA; assay type: functional, cell-based; details: dose 2.0 µg/ml
[13] = system: BMDM; test: Induction of IL-23 production in C57BL/6 mouse BMDM cells at 2 ug/ml incubated for 48 hrs in presence of 1 nmol [(2R,3S,4S,5R,6R)-3,4,5-trihydroxy-6-[(3R,4S,5S,6R)-3,4,5-trihydroxy-6-[(4-octadecoxybenzoyl)oxymethyl]tetrahydropyran-2-yl]oxy-tetrahydropyran-2-yl]methyl 4-octadecoxybenzoate by ELISA; assay type: functional, cell-based; details: dose 2.0 µg/ml
[14] = system: HEK293; test: Induction of IL-8 production in HEK293 cells expressing mouse NOD2 at 10 to 100 uM incubated for 20 hrs in presence of 5 to 50 uM [(2R,3S,4S,5R,6R)-3,4,5-trihydroxy-6-[(3R,4S,5S,6R)-3,4,5-trihydroxy-6-[(4-octadecoxybenzoyl)oxymethyl]tetrahydropyran-2-yl]oxy-tetrahydropyran-2-yl]methyl 4-octadecoxybenzoate by ELISA; assay type: functional, cell-based; details: Homo sapiens, dose 10-100 µM
[15] = system: HEK293; test: Induction of IL-8 production in HEK293 cells expressing mouse NOD2 at 10 to 100 uM incubated for 20 hrs in presence of 5 to 50 uM 6,6'-Di-0-(2,4-bis(octadecyloxy)benzoyl)-alpha,alpha'-D-trehalose by ELISA; assay type: functional, cell-based; details: Homo sapiens, dose 10-100 µM
[16] = system: Splenocyte; test: Improvement in memory response in ovalbumin immunized C57BL/6 mouse splenocytes assessed as increase in IFNgamma level incubated for 72 hrs in presence of 6,6'-Di-0-(2,4-bis(octadecyloxy)benzoyl)-alpha,alpha'-D-trehalose by ELISA; assay type: functional, cell-based
[17] = system: Splenocyte; test: Improvement in memory response in ovalbumin immunized C57BL/6 mouse splenocytes assessed as increase in IFNgamma level incubated for 72 hrs in presence of [(2R,3S,4S,5R,6R)-3,4,5-trihydroxy-6-[(3R,4S,5S,6R)-3,4,5-trihydroxy-6-[(4-octadecoxybenzoyl)oxymethyl]tetrahydropyran-2-yl]oxy-tetrahydropyran-2-yl]methyl 4-octadecoxybenzoate by ELISA; assay type: functional, cell-based
[18] = species on record: Mus musculus; test: Adjuvanticity in ovalbumin immunized C57BL/6 mouse assessed as increase in anti-OVA IgG titers boosted with OVA at 1 week and measured after week 3, 4, 5 and 6 in presence of 6,6'-Di-0-(2,4-bis(octadecyloxy)benzoyl)-alpha,alpha'-D-trehalose by ELISA; assay type: functional, organism-based; details: time 6.0 weeks
[19] = Toxicity in ovalbumin immunized C57BL/6 mouse assessed as reactogenicity boosted with OVA at 1 week and measured after week 3, 4, 5 and 6 in presence of 6,6'-Di-0-(2,4-bis(octadecyloxy)benzoyl)-alpha,alpha'-D-trehalose; details: in vivo, 1008 h, time 6 weeks
[20] = system: HEK293; test: Induction of IL-8 production in HEK293 cells expressing mouse NOD2 at 5 to 50 uM incubated for 20 hrs in presence of 10 to 100 uM (4R)-4-[[(2S)-2-[[(2R)-2-[(3R,4R,5S,6R)-3-acetamido-2,5-dihydroxy-6-(hydroxymethyl)tetrahydropyran-4-yl]oxypropanoyl]amino]propanoyl]amino]-5-amino-5-oxo-pentanoic acid by ELISA; assay type: functional, cell-based; details: Homo sapiens, dose 5-50 µM
[21] = system: Splenocyte; test: Improvement in memory response in ovalbumin immunized C57BL/6 mouse splenocytes assessed as increase in IFNgamma level incubated for 72 hrs in presence of (4R)-4-[[(2S)-2-[[(2R)-2-[(3R,4R,5S,6R)-3-acetamido-2,5-dihydroxy-6-(hydroxymethyl)tetrahydropyran-4-yl]oxypropanoyl]amino]propanoyl]amino]-5-amino-5-oxo-pentanoic acid by ELISA; assay type: functional, cell-based
[22] = Toxicity in ovalbumin immunized C57BL/6 mouse assessed as reactogenicity boosted with OVA at 1 week and measured after week 3, 4, 5 and 6 in presence of (4R)-4-[[(2S)-2-[[(2R)-2-[(3R,4R,5S,6R)-3-acetamido-2,5-dihydroxy-6-(hydroxymethyl)tetrahydropyran-4-yl]oxypropanoyl]amino]propanoyl]amino]-5-amino-5-oxo-pentanoic acid; details: in vivo, 1008 h, time 6 weeks
[23] = species on record: Mus musculus; test: Adjuvanticity in ovalbumin immunized C57BL/6 mouse assessed as increase in anti-OVA IgG titers boosted with OVA at 1 week and measured after week 3, 4, 5 and 6 in presence of (4R)-4-[[(2S)-2-[[(2R)-2-[(3R,4R,5S,6R)-3-acetamido-2,5-dihydroxy-6-(hydroxymethyl)tetrahydropyran-4-yl]oxypropanoyl]amino]propanoyl]amino]-5-amino-5-oxo-pentanoic acid by ELISA; assay type: functional, organism-based; details: time 6.0 weeks
[24] = system: BMDM; test: Induction of IL-1beta production in C57BL/6 mouse BMDM cells at 1 nmol per well incubated for 24 hrs by ELISA; assay type: functional, cell-based
[25] = system: BMDM; test: Induction of MIP-2 production in C57BL/6 mouse BMDM cells at 1 nmol per well incubated for 24 hrs by ELISA; assay type: functional, cell-based
[26] = system: BMDM; test: Induction of IL-6 production in C57BL/6 mouse BMDM cells at 1 nmol per well incubated for 24 hrs by ELISA; assay type: functional, cell-based
[27] = system: BMDM; test: Induction of IL-1beta production in C57BL/6 mouse BMDM cells at 1 nmol per well incubated for 48 hrs in presence of 2 ug/ml (4R)-4-[[(2S)-2-[[(2R)-2-[(3R,4R,5S,6R)-3-acetamido-2,5-dihydroxy-6-(hydroxymethyl)tetrahydropyran-4-yl]oxypropanoyl]amino]propanoyl]amino]-5-amino-5-oxo-pentanoic acid by ELISA; assay type: functional, cell-based
[28] = system: BMDM; test: Induction of IL-23 production in C57BL/6 mouse BMDM cells at 1 nmol per well incubated for 48 hrs in presence of 2ug/ml (4R)-4-[[(2S)-2-[[(2R)-2-[(3R,4R,5S,6R)-3-acetamido-2,5-dihydroxy-6-(hydroxymethyl)tetrahydropyran-4-yl]oxypropanoyl]amino]propanoyl]amino]-5-amino-5-oxo-pentanoic acid by ELISA; assay type: functional, cell-based
[29] = system: BMDM; test: Induction of IL-23 production in C57BL/6 mouse BMDM cells at 1 nmol per well incubated for 48 hrs in presence of 2.5 ug/ml (2R,6S)-2-amino-6-[[(4R)-4-amino-4-carboxy-butanoyl]amino]heptanedioic acid by ELISA; assay type: functional, cell-based
[30] = system: BMDM; test: Induction of IL-23 production in C57BL/6 mouse BMDM cells at 1 nmol per well incubated for 48 hrs in presence of 2 ug/ml murabutide by ELISA; assay type: functional, cell-based

CON(CCCn1cc(CCCCCCCCCCCCCCCCCOc2ccc(C(=O)OC[C@H]3OC(O[C@H]4O[C@H](COC(=O)c5ccc(OCCCCCCCCCCCCCCCCCc6cn(CCCN(OC)[C@H]7O[C@@H](CO)[C@H](O)[C@@H](O[C@H](C)C(=O)N[C@@H](C)C(=O)N[C@H](CCC(=O)O)C(N)=O)[C@@H]7NC(C)=O)nn6)cc5)[C@@H](O)[C@H](O)[C@H]4O)[C@H](O)[C@@H](O)[C@@H]3O)cc2)nn1)[C@@H]1O[C@@H](CO)[C@H](O)[C@@H](O[C@H](C)C(=O)N[C@@H](C)C(=O)N[C@H](CCC(=O)O)C(N)=O)[C@@H]1NC(C)=O (stereo partly specified)
Activity [1]: Active
Activity [2]: Active
t1/2 [3]: 1 yr
half-life [4]: 60 h
half-life [5]: 1 h
Activity [6]: Active
Activity [7]: Active
Activity [8]: Active
Activity [9]: Active
Activity [10]: Active
Activity [11]: Non-Toxic

CC(=O)N[C@@H]1[C@@H](O[C@H](C)C(=O)N[C@@H](C)C(=O)N[C@H](CCC(=O)O)C(N)=O)[C@H](O)[C@@H](CO)O[C@H]1O [MURAMYL DIPEPTIDE]
Activity [12]: Active
Activity [13]: Active
Activity [14]: Active
Activity [15]: Active
Activity [16]: inactive
Activity [17]: Active
Activity [18]: Active
Activity [19]: Toxic

CCCCCCCCCCCCCCCCCCOc1ccc(C(=O)OC[C@H]2O[C@H](O[C@H]3O[C@H](COC(=O)c4ccc(OCCCCCCCCCCCCCCCCCC)cc4OCCCCCCCCCCCCCCCCCC)[C@@H](O)[C@H](O)[C@H]3O)[C@H](O)[C@@H](O)[C@@H]2O)c(OCCCCCCCCCCCCCCCCCC)c1
Activity [1]: Active
Activity [2]: inactive
Activity [20]: Active
Activity [21]: inactive
Activity [22]: Toxic
Activity [23]: Active

CCCCCCCCCCCCCCCCCCOc1ccc(C(=O)OC[C@H]2O[C@H](O[C@H]3O[C@H](COC(=O)c4ccc(OCCCCCCCCCCCCCCCCCC)cc4OCc4cn(CCCN(OC)[C@@H]5O[C@H](CO)[C@@H](O)[C@H](O)[C@H]5NC(C)=O)nn4)[C@@H](O)[C@H](O)[C@H]3O)[C@H](O)[C@@H](O)[C@@H]2O)c(OCc2cn(CCCN(OC)[C@@H]3O[C@H](CO)[C@@H](O)[C@H](O)[C@H]3NC(C)=O)nn2)c1
Activity [24]: inactive
Activity [25]: inactive
Activity [26]: inactive

CCCCCCCCCCCCCCCCCCOc1ccc(C(=O)OC[C@H]2O[C@H](O[C@H]3O[C@H](COC(=O)c4ccc(OCCCCCCCCCCCCCCCCCC)cc4)[C@@H](O)[C@H](O)[C@H]3O)[C@H](O)[C@@H](O)[C@@H]2O)cc1
Activity [27]: Active
Activity [28]: Active
Activity [29]: inactive
Activity [30]: inactive
Activity [1]: Active
Activity [2]: inactive
Activity [20]: Active
Activity [21]: Active
